Assay results from US11890295B2, “Helicobacter pylori eradication method including step for orally administering composition including complex of non-absorbable antibiotic and clay mineral to subject” (KOREA INSTITUTE OF GEOSCIENCE AND MINERAL RESOURCES, priority 2018, dated 2024).

Tests used:
[1] = test system: clarithromycin-resistant strain; assay: MIC of clarithromycin for the clarithromycin-resistant strain; type: cell-based; details: Helicobacter pylori
[2] = test system: Clarithromycin-resistant Helicobacter pylori bacteria; assay: in vitro eradication activity on resistant strain, disk on medium; type: cell-based; details: twice repeated tests
From the text: Clarithromycin-resistant Helicobacter pylori bacteria were applied on a medium (red), and a sample was made in the form of a disk and placed on the medium to measure an eradicating effect. At this time, if the red color disappeared around the disk, it means that there was the eradicating effect.

[3] = test system: H. pylori, 187 culture-positive clinical strains; assay: antibiotic resistant rate from in vitro MIC on clinical strains; type: cell-based, Helicobacter pylori; details: based on MIC 1 μg/mL
Method: In virto MIC for non-absorbable antibiotic candidates (gentamicin, netilmicin, tobramycin, and amikacin) to be used as novel therapeutic agents was measured by making complexes with antibiotics (amoxicillin, clarithromycin, metronidazole, levofloxacin, and tetracyclin) that were actually used for Helicobacter eradicating treatment in clinical trials and smectite, and MIC50 and MIC90 were identified. For this end, 187 culture-positive clinical strains obtained from 1,265 patient specimens were used.

| Compound | MIC [1] [µg/mL] | clear zone around disk (eradication activity) [2] | resistant rate of H. pylori [3] [%] |
| --- | --- | --- | --- |
| CC[C@H]1OC(=O)[C@H](C)[C@@H](O[C@H]2C[C@@](C)(OC)[C@@H](O)[C@H](C)O2)[C@H](C)[C@@H](O[C@@H]2O[C@H](C)C[C@H](N(C)C)[C@H]2O)[C@](C)(OC)C[C@@H](C)C(=O)[C@H](C)[C@@H](O)[C@]1(C)O [clarithromycin] | 48 | no clear zone |  |
| gentamicin |  |  | 2.78 |
